Entries after “also recorded” stand apart in the source; their conditions may differ. Like-named read-outs stand apart in the source and are kept apart here.
What was measured:
[1] = system: myocardial ischemia (partial occlusion of the coronary artery); test: rise of ST segment (epicardiac ECG) in partial occlusion of the coronary artery with superposition of a high artificial rhythm; type: in vivo, cats and dogs
[2] = system: systolic arterial pressure; conditions: for lowering of the systolic arterial pressure: 1 hour after peroral administration; for lowering of the systolic arterial pressure / lowering of the arterial pressure: present compound 10 mg/kg; for lowering of the arterial pressure: in 5 hours after peroral administration
[3] = system: white mice; test: in vivo
Text: (§1) The studies of acute toxicity established the present compound to be low-toxic.
(§2) Acute toxicity of investigated compounds for
(§3) white mice upon intraperitoneal administration

[4] = system: coronary circulation / cardiovascular system; conditions: for Duration: increase of coronary blood flow
Text: The action of 2,6-dimethyl-3,5-bis-(1-adamantylhydroxycarbonyl)-4-(2-difluoromethoxyphenyl)-1,4-dihydropyridine on the cardiovascular system was investigated in experiments with cats, rats, and mice.

[5] = system: venous blood outflowing from the coronary sinus of the heart; test: content of oxygen in venous blood outflowing from the coronary sinus; minute volume of the heart; type: in vivo, cats; conditions: 0.2 to 3 mg/kg
[6] = system: myocardial ischemia (complete occlusion of the coronary artery); test: ischemic change in the heart in complete occlusion of the coronary artery; type: in vivo, dogs
[7] = system: arterial pressure; test: arterial pressure in rats of the line SHR, daily peroral administration during 10 days; type: in vivo
Description: The application of the present compound with daily peroral administration to rats of the line SHR in the dose of 20 mg/kg during 10 days causes lowering of the arterial pressure by 30-60 mm Hg during 24 hours. […] After the administration of the present compound was discontinued, the systolic arterial pressure gradually rose and reached the control group value in 3 days.

[8] = system: arrhythmia and cardiac arrest caused by calcium chloride; test: calcium chloride model of arrhythmia in white mice; type: in vivo
[9] = system: aconitic arrhythmia; test: aconitic model of arrhythmia in albino rats; type: in vivo; conditions: peroral and intravenous administration
[10] = system: arrhythmia caused by barium chloride; test: barium chloride arrhythmia in rabbits; type: in vivo
[11] = in vivo; conditions: mouse, in vivo, ip
Text: as §1, §2, §3

[12] = solubility; type: physicochemical; conditions: ethyl alcohol, chloroform, and other organic solvents and oils
[13] = stability in storage; type: physicochemical; conditions: conventional conditions
[14] = white mice, intraperitoneal, present compound = 1
[15] = narcotized cats, dose 0.05 mg/kg
[16] = narcotized cats, dose 0.50 mg/kg
[17] = narcotized cats, dose 2.00 mg/kg
[18] = preliminary peroral, 2 to 10 mg/kg, barium chloride 4 mg/kg intravenously

Structure (SMILES): COC(=O)C1=C(C)NC(C)=C(C(=O)OC)C1c1ccccc1[N+](=O)[O-] [Niphedipine, 2,6-dimethyl-4-o-nitrophenyl-3,5-dimethoxycarbonyl-1,4-dihydropyridine, reference compound]
- prevention of the rise of the ST segment ([1]; intravenous, 0.01 to 0.05 mg/kg, partial occlusion + high artificial rhythm): only in an insignificant prevention of the rise of the ST segment
- lowering of the systolic arterial pressure [2]: 51.7 mm Hg
- lowering of the arterial pressure [2]: 14 mm Hg

Structure (SMILES): CCN(CC)CCNC(=O)c1ccc(N)cc1 [Novocainamide (procainamide), reference compound]
- Relative toxicity ([3]; mouse, in vivo, ip): 28.9

Structure (SMILES): COc1ccc(Cc2nccc3cc(OC)c(OC)cc23)cc1OC [Papaverine, reference compound]
- Relative toxicity [3, 14]: 92.3

Structure (SMILES): CC1=C(C(=O)OC23CC4CC(CC(C4)C2)C3)C(c2ccccc2OC(F)F)C(C(=O)OC23CC4CC(CC(C4)C2)C3)=C(C)N1 (stereo not shown) [Present compound, 2,6-dimethyl-3,5-bis-(1-adamantylhydroxycarbonyl)-4-(2-difluoromethoxyphenyl)-1,4-dihydropyridine]
- effect on arterial pressure, systemic venous pressure and aortal blood flow ([4]; 0.005 to 3 mg/kg): does not cause sharp drop of the arterial pressure, noticeable increase of the systemic venous pressure, or diminution of the aortal blood flow
- undesirable effects (sharp drop of arterial pressure, diminishing of arterial/aortal blood flow, increase of systemic venous pressure) ([4]; 0.05 to 3 mg/kg): causing no undesirable effects; also recorded: without causing such undesirable effects as sharp drop of the arterial pressure or pronounced diminishing of the aortal blood flow
- duration of action compared with niphedipine ([4]; equiactive doses): twice as durative
- rising of the systemic venous pressure ([4]; large doses, intravenous administration): does not bring about rising of the systemic venous pressure
- coronarodilating action ([4]; narcotized cats): pronounced coronarodilating action
- coronarodilating activity compared with niphedipine ([4]; narcotized cats): somewhat inferior to niphedipine in activity
- Change of aortal blood flow [4, 15]: +5%
- Increase of space velocity of coronary blood flow [4, 15]: 10%
- Lowering of arterial pressure [4, 15]: 0%
- Duration [4, 15]: 25 min
- Change of aortal blood flow [4, 16]: +12%
- Change of systemic venous pressure [4, 16]: -10%
- Increase of space velocity of coronary blood flow [4, 16]: 60%
- Lowering of arterial pressure [4, 16]: 5%
- Duration [4, 16]: 50 min
- Change of aortal blood flow [4, 17]: +20%
- Change of systemic venous pressure [4, 17]: +8%
- Increase of space velocity of coronary blood flow [4, 17]: 120%
- Lowering of arterial pressure [4, 17]: 20%
- Duration [4, 17]: 90 min
- minute volume of the heart [5]: somewhat increases
- content of oxygen in venous blood outflowing from the coronary sinus ([5]; cats): increases the content of oxygen in venous blood; also recorded: increases the content of oxygen in the venous blood
- effectiveness by ECG data (epicardium lead) compared with niphedipine and nitroglycerine ([1]; experiments with cats and dogs): more effective than niphedipine and nitroglycerine
- effect compared with nitroglycerine ([1]; intravenous 0.3 to 2 mg/kg vs nitroglycerine 0.05 mg/kg): almost two times more durative and more pronounced than of nitroglycerine
- rise of the ST segment on epicardiac leads of the ECG ([1]; preliminary intravenous, 0.3 to 2 mg/kg, partial occlusion + high artificial rhythm): considerably diminishes, and in some cases even completely precludes a rise of the ST segment
- myocardial ischemia ([6]; complete occlusion and also partial occlusion with high artificial rhythm, cats and dogs): diminishes myocardial ischemia
- ischemic change in the heart ([6]; dogs, preliminary administration, 0.5 to 2 mg/kg, complete occlusion): considerably diminished the ischemic change in the heart
- time for systolic arterial pressure to reach the control group value after discontinuation ([7]; after daily peroral 20 mg/kg during 10 days): 3 days
- pulse frequency ([7]; daily peroral 20 mg/kg during 10 days): No increase of the pulse frequency was observed
- lowering of the arterial pressure ([7]; daily peroral 20 mg/kg during 10 days, during 24 hours): 30-60 mm Hg
- antiarrhythmic activity compared with novocainamide (procainamide) and quinidine ([8]; calcium model of arrhythmia): in smaller doses, and in a more pronounced manner; also recorded: exceeds that of novocainamide (procainamide) and quinidine
- prevention of arrhythmia and cardiac arrest ([8]; peroral, 1 to 5 mg/kg, calcium chloride intravenous): prevents the appearance of arrhythmia and cardiac arrest
- prophylactic and therapeutic activity on aconitic arrhythmia [9]: considerable prophylactic and therapeutic activity; also recorded: prophylactic and therapeutic effect
- prophylactic and therapeutic effect on barium arrhythmia [10]: prophylactic and therapeutic effect
- alleviation of arrhythmia [10, 18]: considerably alleviates arrhythmia
- shortening of arrhythmia [10, 18]: 2-5 times
- LD50 [11]: 8400 mg/kg
- Relative toxicity ([3]; mouse, in vivo, ip): 1
- LD50 ([3]; white mice, intraperitoneal): 8400(6885.2-10248) mg/kg
- toxicity relative to niphedipine ([3]; white mice, intraperitoneal): 1/44
- toxicity relative to quinidine ([3]; white mice, intraperitoneal): 1/53
- solubility [12]: readily soluble in ethyl alcohol, chloroform, and other organic solvents and oils
- stability in storage [13]: stable when stored under conventional conditions
- lowering of the systolic arterial pressure [2]: 31.5 mm Hg
- lowering of the arterial pressure [2]: 8.6 mm Hg
- lowering of arterial pressure compared with niphedipine ([2]; peroral 10 mg/kg): less pronounced than the action of niphedipine

Structure (SMILES): C=C[C@H]1C[N@@]2CC[C@H]1C[C@@H]2[C@@H](O)c1ccnc2ccc(OC)cc12 [Quinidine, reference compound]
- Relative toxicity [3, 14]: 53.8

Reference: patent US4487932A, “2,6-Dimethyl-3,5-bis-(1-adamantylhydr oxycarbonyl)-4-(2-difluoromethoxyphenyl)-1,4-dihydropyridine” (Institut Organicheskogo Sinteza Akademii Nauk Latviiskoi, priority 1983, dated 1984)
